Assay results taken from patent US20220073536A1 (Rigel Pharmaceuticals, Inc., priority 2003, published 2022).
Structures can show the parent of a compound that is named as a salt. Where two headings read alike, the source gives them in different places. Values belong to the molecule of their own block, whether it stands above or below them.

Test system: cultured human mast cells (CHMC)
Assay: CHMC low cell density IgE activation: tryptase assay
Format: cell-based
Details: IgE activation
Outline: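 Tryptase release, fluorogenic substrate, 30 min RT. Prior anti-IgE stimulation of CHMC, 30 min, 37 °C, after 1 hr preincubation at 1000–1500 cells/well in MT; unstimulated wells received MT.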

[1] = low cell density, 8 pt, read-out: LD Tryptase, CHMC, IgE, 8 pt
[2] = low cell density, 3 pt, read-out: LD Tryptase, CHMC, IgE, 3 pt
[3] = Homo sapiens, Mast cell, low cell density CHMC, tryptase, 8 pt, read-out: LD Tryptase, CHMC, IgE, 8 pt
[4] = Homo sapiens, Mast cell, low cell density, 3 pt, read-out: LD Tryptase, CHMC, IgE, 3 pt
[5] = Homo sapiens, Mast cell, low cell density, 8 pt, read-out: LD Tryptase, CHMC, IgE, 8 pt
[6] = Homo sapiens, Mast cell, low cell density CHMC, tryptase, 3 pt, read-out: LD Tryptase, CHMC, IgE, 3 pt
[7] = Homo sapiens, Mast cell, low cell density CHMC, tryptase release, 8 pt, read-out: LD Tryptase, CHMC, IgE, 8 pt
[8] = low cell density CHMC, tryptase readout, 8 pt, read-out: LD Tryptase, CHMC, IgE, 8 pt
[9] = low cell density CHMC, tryptase, 3 pt, read-out: LD Tryptase, CHMC, IgE, 3 pt
[10] = Homo sapiens, Mast cell, low cell density CHMC, tryptase release, 3 pt, read-out: LD Tryptase, CHMC, IgE, 3 pt

Molecule: (R)-N2- (3-Chloro-4-methoxyphenyl)-5-fluoro-N4- (2-methyl-3-oxo-2H,4H-benz[1,4]oxazin-6-yl)-2,4-pyrimidinediamine (1S)-(+)-Camphorsulfonic Acid Salt [Compound 209]
IC50 (low cell density CHMC, tryptase release, 8 pt, read-out: LD Tryptase, CHMC, IgE, 8 pt): < 10 µM

Molecule: CC(C)(C)c1nnc(-c2cccc(Nc3ncc(F)c(Nc4ccc5c(c4)OCCO5)n3)c2)o1 [Compound 531, N2-[ (2-tert-Butyl-1,3,4-oxadiazol-5-yl)phenyl]-N4-(3,4-ethylenedioxyphenyl)-5-fluoro-2,4-pyrimidinediamine]
IC50 [2]: < 10 µM

Molecule: CC1(C)Sc2ccc(Nc3nc(Cl)ncc3F)cc2NC1=O [Compound 316, N2-Chloro-N4-(2,2,-dimethyl-3-oxo-4H-benzo[1,4]thiazin-6-yl)-5-fluoro-4-pyrimidineamine]
IC50 (low cell density CHMC, tryptase release, 3 pt, read-out: LD Tryptase, CHMC, IgE, 3 pt): < 10 µM

Molecule: Cc1cc(C)cc(Nc2ncc(F)c(Nc3ccc4c(c3)NC(=O)C(C)(C)S4(=O)=O)n2)c1 [Compound 268]
IC50 [7]: < 10 µM

Molecule: COc1cc(Nc2ncc(F)c(Nc3cc(C)cc(C)c3)n2)cc(OC)c1 [Compound 328]
IC50 [7]: < 10 µM

Molecule: COC(=O)c1cc(Nc2ncc(F)c(Nc3cc(C(=O)OC)cc(-c4ncco4)c3)n2)cc(-c2ncco2)c1 [Compound 527]
IC50 [4]: < 10 µM

Molecule: Cn1nc(-c2ccccc2)cc1Nc1nc(Nc2cccc(-c3ncco3)c2)ncc1F [Compound 526]
IC50 [4]: < 10 µM

Molecule: CCOC(=O)C(C)(C)Oc1ccc(Nc2nc(Nc3cc(OC)cc(OC)c3)ncc2F)cc1Cl [Compound 408, N4-[3-Chloro-4-(ethoxycarbonyl-1,1-dimethylmethyleneoxy)phenyl]-N2-(3,5-dimethoxyphenyl)-5-fluoro-2,4-pyrimidinediamine]
IC50 (low cell density CHMC, tryptase, 8 pt, read-out: LD Tryptase, CHMC, IgE, 8 pt): < 10 µM

Molecule: CC(=O)N1CCN(c2ccc(Nc3ncc(F)c(NC4CCC4)n3)cc2)CC1 [Compound 1192, N2-[4-(4-Acetylpiperazino)phenyl]-N4-cyclobutyl-5-fluoro-2,4-pyrimidinediamine Bis Hydrogen Chloride Salt]
IC50 [9]: < 10 µM

Molecule: COc1ccc(Nc2ncc(F)c(Nc3ccc4c(c3)NC(=O)CS4)n2)cc1F [Compound 300, 5-Fluoro-N2-(3-fluoro-4-methoxyphenyl)-N4-(3-oxo-2H,4H-benzo[1,4]thiazin-6-yl)-2,4-pyrimidinediamine]
IC50 [10]: < 10 µM
IC50 [7]: < 10 µM

Molecule: COc1cc(Nc2nc(Nc3cc(OC)cc(C(F)(F)F)c3)ncc2F)cc(OC)c1 [Compound 355]
IC50 [6]: < 10 µM

Molecule: N4- (3,4-Ethylenedioxyphenyl)-5-fluoro-N2-[3,4-(tetrafluoroethylenedioxy)phenyl]-2,4-pyrimidinediamine [Compound 363]
IC50 [9]: < 10 µM

Molecule: CNC(=O)COc1cccc(Nc2ncc(F)c(Nc3ccc(C(=O)NC)c(Cl)c3)n2)c1 [Compound 483, N4-[3-Chloro-4-(N-methylamino)carbonylphenyl]-5-fluoro-N2-[3-(N-methylamino)carbonylmethyleneoxyphenyl]-2,4-pyrimidinediamine]
IC50 [1]: < 10 µM

Molecule: COc1cc(Nc2ncc(F)c(Nc3ccc4c(c3)NC(=O)C(C)S4(=O)=O)n2)cc(OC)c1 (stereo not shown) [Compound 263, N2-(3,5-Dimethoxyphenyl)-N4-(dioxide-2-methyl-1,1,3-trioxo-4H-benzo[1,4]thiazin-6-yl)-5-fluoro-2,4-pyrimidinediamine]
IC50 [10]: < 10 µM
IC50 [7]: < 10 µM

Results, then the molecule that gave them:

IC50 [1]: < 10 µM
Molecule: Oc1c(Cl)cc(Nc2ncc(F)c(Nc3ccc4c(c3)OC(F)(F)O4)n2)cc1Cl [Compound 564]

IC50 [3]: < 10 µM
Molecule: CC1(C)Oc2ccc(Nc3nc(Nc4ccc5c(cnn5CC5CCCCC5)c4)ncc3F)cc2NC1=O [Compound 720, N2-[1-(Cyclohexylmethyl)indazol-5-yl]-N4-(2,2-dimethyl-3-oxo-4H-benz[1,4]oxazin-6-yl)-5-fluoro-2,4-pyrimidinediamine]

IC50 [3]: > 10 µM
Molecule: NC(=O)c1ccc(Nc2nc(Cl)ncc2F)cc1 [Compound 1327]

IC50 [4]: < 10 µM
IC50 [5]: < 10 µM
Molecule: C[C@@H]1Oc2ccc(Nc3nc(N)nc(-c4ccc5c(c4)nc(C(F)(F)F)n5CCO)c3F)cc2NC1=O [Compound 919]

IC50 [5]: < 10 µM
Molecule: CC1(C)Oc2ccc(Nc3nc(Nc4ccc5[nH]c(CN6CCOCC6)nc5c4)ncc3F)nc2NC1=O [Compound 962, N4-(2,2-Dimethyl-3-oxo-4H-5-pyrido[1,4]oxazin-6-yl)-5-fluoro-N2-[2-(4-morpholinomethyl)-1H-benzimidazol-5-yl]-2,4-pyrimidinediamine]

IC50 [6]: < 10 µM
IC50 [3]: < 10 µM
Molecule: CCCn1cc2ccc(Nc3ncc(F)c(Nc4ccc5c(c4)NC(=O)C(C)(C)O5)n3)cc2n1 [Compound 764, N4-(2,2-Dimethyl-3-oxo-4H-benz[1,4]oxazin-6-yl)-5-fluoro-N2-(2-n-propylindazol-6-yl)-2,4-pyrimidinediamine]

IC50 [8]: < 10 µM
Molecule: COc1c(C)cc(Nc2ncc(F)c(Nc3ccc4c(n3)NC(=O)CO4)n2)cc1C [Compound 1059, N2-(3,5-Dimethyl-4-methoxyphenyl)-5-fluoro-N4-(3-oxo-2H,4H-5-pyrid[1,4]oxazin-6-yl)-2,4-pyrimidinediamine]

IC50 [7]: < 10 µM
Molecule: COc1ccc(Nc2nc(Nc3ccc4c(cnn4C(C)C)c3)ncc2F)cc1Cl [Compound 779, N4-(3-Chloro-4-methoxyphenyl)-5-fluoro-N2-[1-(1-methylethyl)indazol-5-yl]-2,4-pyrimidinediamine]

IC50 [3]: < 10 µM
Molecule: Cc1cc(Nc2ncc(F)c(NC(C)(C)C)n2)ccc1N1CCN(C)CC1 [Compound 1218]

IC50 [2]: < 10 µM
IC50 [1]: < 10 µM
Molecule: C[C@@H]1Oc2ccc(Nc3nc(Nc4ccc5c(c4)nc(CN4CCOCC4)n5C)ncc3F)cc2NC1=O [Compound 957, (S)-5-Fluoro-N2-[1-methyl-2-(4-morpholinomethyl)benzimidazol-5-yl]-N4-(2-methyl-3-oxo-2H,4H-benz[1,4]oxazin-6-yl)- -2,4-pyrimidinediamine]

IC50 [4]: < 10 µM
IC50 [5]: < 10 µM
Molecule: CCOCCCn1ncc2cc(Nc3ncc(F)c(Nc4ccc(OC)c(Cl)c4)n3)ccc21 [Compound 871, N4-(3-Chloro-4-methoxyphenyl)-N2-[1-(3-ethoxypropyl)indazol-5-yl]-5-fluoro-2,4-pyrimidinediamine]

IC50 [6]: < 10 µM
Molecule: Fc1cnc(Nc2ccc3cnn(C4CCCCC4)c3c2)nc1Nc1ccc(Cl)c(Cl)c1 [Compound 747, N2-(1-Cyclohexylindazol-6-yl)-N4-(3,4-dichlorophenyl)-5-fluoro-2,4-pyrimidinediamine]

IC50 [4]: < 10 µM
Molecule: CCN(CC)Cc1nc2cc(Nc3ncc(F)c(Nc4ccc(OC)c(Cl)c4)n3)ccc2n1C [Compound 971]

IC50 [3]: < 10 µM
Molecule: CCCCn1ncc2ccc(Nc3ncc(F)c(Nc4ccc5c(c4)NC(=O)C(C)(C)O5)n3)cc21 [Compound 716, N2-(1-n-Butylindazol-6-yl)-N4-(2,2-dimethyl-3-oxo-4H-benz[1,4]oxazin-6-yl)-5-fluoro-2,4-pyrimidinediamine]

IC50 (Homo sapiens, Mast cell, low cell density CHMC, tryptase release, 3 point, read-out: LD Tryptase, CHMC, IgE, 3 pt): < 10 µM
Molecule: COc1cc(Nc2nc(Nc3cccc(-c4ncco4)c3)ncc2F)cc(OC)c1OC [Compound 667]

IC50 [2]: < 10 µM
Molecule: CCn1c(C)nc2cc(Nc3ncc(F)c(Nc4ccc5c(n4)NC(=O)C(C)(C)O5)n3)ccc21 [Compound 936, N4-(2,2-Dimethyl-3-oxo-4H-5-pyrido[1,4]oxazin-6-yl)-N2-(1-ethyl-2-methylbenzimidazol-5-yl)-5-fluoro-2,4-pyrimidinediamine]

IC50 [8]: < 10 µM
Molecule: CC1(C)Oc2ccc(Nc3nc(Nc4cccc(N5CCOCC5)c4)ncc3F)nc2NC1=O [Compound 1078, N4-(2,2-Dimethyl-3-oxo-4H-5-pyrid[1,4]oxazin-6-yl)-5-fluoro-N2-(3-morpholinophenyl)-2,4-pyrimidinediamine]
